The results in this text go back to US20040254162A1, “Oxazolidinone derivatives as antimicrobials” (priority 2001, published 2004).

The subject of experiment [1] is MRSA 562. In words: MIC, agar incorporation method. The note with it: MRSA 562; Table 5.
A further experiment deals with Strep. pne. ATCC 6303. Description: MIC, agar incorporation method. As to conditions: agar incorporation.
The test system of the next experiment is Strep. pyog. ATCC 19615. In words: MIC, agar incorporation method. As to conditions: agar incorporation.
A further experiment relates to VRE 6A (Ent. faecium 6A). In words: MIC, agar incorporation method. As to conditions: agar incorporation.
In another experiment the test system is S. pneum AB 34. In words: MIC, agar incorporation method. The note with it: agar incorporation.
In another experiment the test system is S. aureus ATCC 25923. Description: MIC, agar incorporation method. The note with it: agar incorporation.
In another experiment the test system is S. aureus. Description: Summary of in vitro activity (MIC). As to conditions: S. aureus.
Another experiment deals with MRSA 15187. Description: MIC, agar incorporation method. As to conditions: agar incorporation.
A further experiment relates to S. pneumoniae. In words: Summary of in vitro activity (MIC). As to conditions: S. pneumoniae.
The subject of a further experiment is MRSA 33. Description: MIC, agar incorporation method. The note with it: agar incorporation.
The next experiment relates to Ent. faecalis ATCC 29212. Description: MIC, agar incorporation method. As to conditions: agar incorporation.
Another experiment deals with G +ve bacteria. Description: Summary of in vitro activity (MIC).
Experiment [2] relates to MRSA 562. Description: In vivo activity against MRSA 562 (ED50). Also on record: species or system Methicillin Resistant Staphylococcus aureus. As to conditions: PO; MRSA 562 infection.
The next experiment concerns E. faecalis. In words: Summary of in vitro activity (MIC). As to conditions: E. faecalis.
Another experiment concerns Bacteroides fragilis. Description: Agar dilution MIC, anaerobes. Type of experiment: cell-based. As to conditions: single isolates, anaerobic agar dilution. In general terms: In agar dilution, organisms are placed on agar that contains the substance at set levels.
In another experiment the test system is Porphyromonas gingivalis. In words: Agar dilution MIC, anaerobes. Type of experiment: cell-based. As to conditions: Porphyromonas gingivalis; single isolate, anaerobic agar dilution; read-out: MIC Porphyromonas gingivalis.
For a further experiment, the system named is Fusobacterium montiferum. Description: Agar dilution MIC, anaerobes. Type of experiment: cell-based. As to conditions: single isolates, anaerobic agar dilution.
For a further experiment, the system named is Eubacterium leutum. Description: Agar dilution MIC, anaerobes. The class given is cell-based. The note with it: Eubacterium, single isolates, anaerobic agar dilution; read-out: MIC Eubacterium leutum.
A further experiment deals with P. acnes. Description: Agar dilution MIC, anaerobes. Type of experiment: cell-based. The note with it: single isolates, anaerobic agar dilution.
In experiment [3] the test system is Prevotella (Bacteroides) disiens. In words: Agar dilution MIC, anaerobes. As to conditions: single isolates, anaerobic agar dilution. The class given is cell-based.
In experiment [4] the test system is Peptostreptococcus asaccharolyticus. Description: Agar dilution MIC, anaerobes. The class given is cell-based. The note with it: single isolates, anaerobic agar dilution.
Another experiment has as its system Prevotella intermedia. Description: Agar dilution MIC, anaerobes. The class given is cell-based. As to conditions: Prevotella intermedia, single isolates, anaerobic agar dilution; read-out: MIC Prevotella intermedia.
The test system of another experiment is Clostridium camis. In words: Agar dilution MIC, anaerobes. The note with it: Clostridium; single isolates, anaerobic agar dilution; read-out: MIC Clostridium camis. The class given is cell-based.
Experiment [5] deals with Peptostreptococcus tetradius. Description: Agar dilution MIC, anaerobes. The class given is cell-based. As to conditions: Anaerococcus tetradius, single isolates, anaerobic agar dilution; read-out: MIC Peptostreptococcus tetradius.
The next experiment has as its system Fusobacterium necrogenes. In words: Agar dilution MIC, anaerobes. The note with it: Fusobacterium necrogenes; single isolate, anaerobic agar dilution; read-out: MIC Fusobacterium necrogenes. The class given is cell-based.
The test system of experiment [6] is Porphyromonas asaccharolytica. In words: Agar dilution MIC, anaerobes. Type of experiment: cell-based. As to conditions: Porphyromonas asaccharolytica; single isolate, anaerobic agar dilution; read-out: MIC Porphyromonas asaccharolytica.
In experiment [7] the test system is Peptostreptococcus prevotii. Description: Agar dilution MIC, anaerobes. Type of experiment: cell-based. The note with it: Anaerococcus prevotii, single isolates, anaerobic agar dilution; read-out: MIC Peptostreptococcus prevotii.
A further experiment relates to Fusobacterium nucleatum. Description: Agar dilution MIC, anaerobes. The class given is cell-based. As to conditions: single isolates, anaerobic agar dilution.

Values after ≈ are worked out from the molar mass of the structure shown. Where only a bound is given, the exact number is not on record here.

A word on the MIC: it is the lowest concentration that inhibits growth of the organism. The MIC50 is the lowest concentration that inhibits either 50% of growth or 50% of the strains tested, depending on the study. As a reminder, the MIC90 is an inhibitory concentration at the 90% level, which refers to growth in some studies and to a panel of isolates in others.

On to `CC(=O)NC[C@H]1CN(c2ccc(N3CCN(C(=O)c4ccc([N+](=O)[O-])o4)CC3)c(F)c2)C(=O)O1` [Compound No. 06, (S)-N-[[3-Fluoro-4-[N-1[4-(5-nitro-2-furoyl)piperazinyl]phenyl]-2-oxo-5-oxazolidinyl]methyl]acetamide], for which the minimum inhibitory concentration (MIC) against MRSA 562 [1] amounted to 1 µg/mL (≈ 2.1 µM). The “MIC S. pneum 6303” value in the experiment on Strep. pne. ATCC 6303 amounted to 2 µg/mL (≈ 4.21 µM). Besides, the “MIC S. pyogenes 19615” value with Strep. pyog. ATCC 19615 is 2 µg/mL (≈ 4.21 µM). In addition, in the experiment on VRE 6A (Ent. faecium 6A), the “MIC VRE 6A” value is 1 µg/mL (≈ 2.1 µM). Also, the “MIC S. pneum AB 34” value in the experiment on S. pneum AB 34 came to 2 µg/mL (≈ 4.21 µM). The “MIC S. aureus 25923” value against S. aureus ATCC 25923 amounted to 1 µg/mL (≈ 2.1 µM). Besides, the “Geometric Mean of in vitro activity (MIC)” value was determined as 0.74 µg/mL with S. aureus, 1.27 µg/mL in the experiment with S. pneumoniae, 0.79 µg/mL in the experiment on G +ve bacteria (Gram + ve) and 0.92 µg/mL in the experiment with E. faecalis. In addition, the MIC50 is 1 µg/mL (≈ 2.1 µM) in the experiment with S. aureus (Number 8); 2 µg/mL (≈ 4.21 µM) against S. pneumoniae (Number 19); 1 µg/mL (≈ 2.1 µM) in the experiment with G +ve bacteria (G +ve, Number 49); 1 µg/mL (≈ 2.1 µM) against E. faecalis (Number 7). Moreover, the MIC90 in the experiment on S. aureus (Number 8) turned out to be 1 µg/mL (≈ 2.1 µM); against S. pneumoniae (Number 19), 2 µg/mL (≈ 4.21 µM); against G +ve bacteria (G +ve, Number 49), 2 µg/mL (≈ 4.21 µM); in the experiment with E. faecalis (Number 7), 1 µg/mL (≈ 2.1 µM). In addition, the “MIC MRSA 15187” value against MRSA 15187 came out at 0.5 µg/mL (≈ 1.05 µM). Further, in the experiment with MRSA 33, the “MIC MRSA 33” value amounted to 0.5 µg/mL (≈ 1.05 µM). Moreover, the “MIC E. faecalis 29212” value against Ent. faecalis ATCC 29212 worked out at 1 µg/mL (≈ 2.1 µM). The “ED50 (mg/kg body weight) PO” value in the experiment with MRSA 562 [2] is reported as more than 25 mg/kg body weight.

For the molecule `COc1c(N2C[C@@H]3CCCN[C@@H]3C2)c(F)cc2c(=O)c(C(=O)O)cn(C3CC3)c12` [Moxifloxacin], the MIC with Bacteroides fragilis (Bacteroides fragilis, read-out: MIC Bacteroides fragilis) worked out at 0.25 µg/mL (≈ 0.623 µM); in the experiment on Porphyromonas gingivalis, 0.03 µg/mL (≈ 0.0747 µM); with Fusobacterium montiferum (Fusobacterium, read-out: MIC Fusobacterium montiferum) it was 0.25 µg/mL (≈ 0.623 µM); with Eubacterium leutum, 0.5 µg/mL (≈ 1.25 µM); in the experiment with P. acnes (Cutibacterium acnes, read-out: MIC P. acnes), 0.25 µg/mL (≈ 0.623 µM); in [3] (read-out: MIC Prevotella (Bacteroides) disiens), 0.25 µg/mL (≈ 0.623 µM). In addition, the MIC was found to be 0.125 µg/mL (≈ 0.311 µM) in experiment [4] (Peptoniphilus asaccharolyticus); 0.5 µg/mL (≈ 1.25 µM) in the experiment on Prevotella intermedia; 0.25 µg/mL (≈ 0.623 µM) in the experiment with Clostridium camis; 0.5 µg/mL (≈ 1.25 µM) in [5]; 1 µg/mL (≈ 2.49 µM) in the experiment on Fusobacterium necrogenes; 0.5 µg/mL (≈ 1.25 µM) in experiment [6]. The MIC in experiment [7] was found to be 0.25 µg/mL (≈ 0.623 µM); in the experiment with Fusobacterium nucleatum (Fusobacterium nucleatum, read-out: MIC Fusobacterium nucleatum), 0.125 µg/mL (≈ 0.311 µM). Also, the “MIC Bacteroides fragilis” value in the experiment with Bacteroides fragilis worked out at 0.5 µg/mL (≈ 1.25 µM). In addition, the “MIC Fusobacterium montiferum” value against Fusobacterium montiferum is 0.5 µg/mL (≈ 1.25 µM). Further, the “MIC P. acnes” value with P. acnes was 0.125 µg/mL (≈ 0.311 µM). For the same molecule, the “MIC Prevotella (Bacteroides) disiens” value in [3] turned out to be 0.5 µg/mL (≈ 1.25 µM). In addition, in experiment [4], the “MIC Peptostreptococcus asaccharolyticus” value was found to be 0.25 µg/mL (≈ 0.623 µM). For the same molecule, the “MIC Fusobacterium nucleatum” value against Fusobacterium nucleatum came to 0.25 µg/mL (≈ 0.623 µM).
